Test systems include RPMI-8226; EKVX; SF-295; OVCAR-8; SR; MDA-N; SNB-75; Malme-3M; HL-60; RXF 393; NCI/ADR-RES; NCI-H522; SK-MEL-2; UACC-62; MOLT-4; NCI-H23; MDA-MB-231; SNB-19; SK-MEL-28; NCI-H226.
Common to all, as to assay: inhibition of tumour cell growth, NCI panel, 48 h

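Step 1: Grow cells in 96-well plates. Step 2: Expose to compound for 48 hours at 5 concentrations. Step 3: Interpolate endpoints linearly; if unreached, use highest concentration. GI50 marks 50% less growth.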 Active and inactive are the calls of the source. Cut-off read from the data, not from the text of the source: active = GI50 up to about 1.1 µM and inactive = higher.

Consider `O=C(O)C(O)(c1ccc(-c2ccccc2)cc1)c1ccc(-c2ccccc2)cc1`, for which the GI50 is 56.6 µM (inactive) with RPMI-8226; 24.3 µM (inactive) in the assay on EKVX; 34 µM (inactive) with SF-295; 32.5 µM (inactive) with OVCAR-8; 47.5 µM (inactive) in the assay with SR; 17.1 µM (inactive) in the assay on MDA-N. The GI50 is 17.1 µM (inactive) in the assay with SNB-75; 23.1 µM (inactive) in the assay on Malme-3M; 21.5 µM (inactive) with HL-60; 22 µM (inactive) in the assay with RXF 393; 24.5 µM (inactive) in the assay on NCI/ADR-RES; 18.9 µM (inactive) in the assay with NCI-H522. For the same compound, the GI50 in the assay on SK-MEL-2 is 14.1 µM (inactive); with UACC-62, 18.1 µM (inactive); with MOLT-4, 42.2 µM (inactive); in the assay on NCI-H23, 18.9 µM (inactive); in the assay on MDA-MB-231, 28.3 µM (inactive); with SNB-19, 49.4 µM (inactive). The GI50 was 35.3 µM (inactive) with SK-MEL-28 and 26.9 µM (inactive) in the assay with NCI-H226.
With `COc1ccc2[nH]c3cc4c(=O)c5cc(OC)ccc5[nH]c4cc3c(=O)c2c1`, the GI50 with RPMI-8226, in the assay with EKVX, in the assay with SF-295, in the assay on OVCAR-8, in the assay with SR and in the assay with MDA-N was > 100 µM (inactive) throughout. For the same compound, the GI50 with SNB-75 is 26.9 µM (inactive); in the assay on Malme-3M it was > 100 µM (inactive); with HL-60 it was 10.8 µM (inactive); in the assay on RXF 393, > 100 µM (inactive); in the assay with NCI/ADR-RES, > 100 µM (inactive); in the assay with NCI-H522, > 100 µM (inactive). The GI50 in the assay on SK-MEL-2, in the assay with UACC-62, with MOLT-4, in the assay on NCI-H23, with MDA-MB-231 and in the assay with SNB-19 was > 100 µM (inactive) each time. Further, the GI50 with SK-MEL-28 and with NCI-H226 was > 100 µM (inactive) each time.
Consider `C1C2CC3CC1CC(c1nn4c(C56CC7CC(CC(C7)C5)C6)nnc4s1)(C2)C3`, for which the GI50 in the assay with RPMI-8226, in the assay on EKVX, with SF-295, with SR, with MDA-N and in the assay with SNB-75 was > 100 µM (inactive) each time. For the same compound, the GI50 in the assay on Malme-3M, in the assay on HL-60, in the assay with RXF 393, with NCI/ADR-RES, in the assay with NCI-H522 and in the assay on SK-MEL-2 was > 100 µM (inactive) in each case. The GI50 in the assay on UACC-62, with MOLT-4, with NCI-H23, with MDA-MB-231, in the assay with SNB-19 and in the assay with SK-MEL-28 was > 100 µM (inactive) each time. Besides, the GI50 with NCI-H226 was > 100 µM (inactive).
Consider `S=c1cc(-c2ccc3c(c2)OCO3)s[nH]1`, for which the GI50 in the assay on RPMI-8226, in the assay with EKVX, in the assay on SF-295, in the assay with OVCAR-8, in the assay with SR and with MDA-N was > 100 µM (inactive) in each case. In addition, the GI50 in the assay on SNB-75 was 48.4 µM (inactive); with Malme-3M it was > 100 µM (inactive); with HL-60, > 100 µM (inactive); with RXF 393, > 100 µM (inactive); with NCI/ADR-RES, > 100 µM (inactive); in the assay with NCI-H522, 5.81 µM (inactive). Besides, the GI50 in the assay on SK-MEL-2 was > 100 µM (inactive); with UACC-62, 83.2 µM (inactive); in the assay with MOLT-4, 65.3 µM (inactive); with NCI-H23 it was > 100 µM (inactive); with MDA-MB-231, > 100 µM (inactive); with SNB-19 it was > 100 µM (inactive). Also, the GI50 is > 100 µM (inactive) in the assay on SK-MEL-28 and 58.5 µM (inactive) with NCI-H226.
Turning to `CN[C@@H](Cc1cccc2ccccc12)C(=O)N[C@@H](CC(C)C)B(O)O`, the GI50 is < 0.01 µM (active) in the assay with RPMI-8226; < 0.01 µM (active) in the assay on SF-295; < 0.014 µM (active) in the assay on OVCAR-8; < 0.01 µM (active) in the assay on SR; < 0.01 µM (active) in the assay on MDA-N; < 0.01 µM (active) in the assay on SNB-75. Besides, the GI50 with Malme-3M was < 0.01 µM (active); in the assay on HL-60 it was < 0.01 µM (active); with RXF 393 it was < 0.01 µM (active); in the assay with NCI/ADR-RES, < 0.0224 µM (active); in the assay on NCI-H522, < 0.01 µM (active); in the assay with SK-MEL-2, < 0.01 µM (active). Further, the GI50 in the assay with UACC-62, with MOLT-4, in the assay on NCI-H23, with MDA-MB-231, in the assay on SNB-19 and in the assay on SK-MEL-28 was < 0.01 µM (active) in each case. In addition, in the assay with NCI-H226, the GI50 was 0.00211 µM (active).
For the compound `OC(CN1CCCCC1)c1ccc(/C=C/c2ccc(Cl)cc2)cc1` (stereo not given), the GI50 with RPMI-8226 is 27.6 µM (inactive); in the assay on EKVX it was > 100 µM (inactive); in the assay with SF-295, 40.7 µM (inactive); in the assay on OVCAR-8, > 100 µM (inactive); in the assay with SR it was > 100 µM (inactive); in the assay with MDA-N it was 56.9 µM (inactive). Further, the GI50 with Malme-3M was 60.3 µM (inactive); with HL-60, 6.14 µM (inactive); in the assay on RXF 393 it was > 100 µM (inactive); with NCI/ADR-RES it was > 100 µM (inactive); in the assay on NCI-H522 it was 21.3 µM (inactive); in the assay on SK-MEL-2 it was 27.2 µM (inactive). For the same compound, the GI50 in the assay on UACC-62 was 24.3 µM (inactive); in the assay on MOLT-4, > 100 µM (inactive); with NCI-H23, > 100 µM (inactive); in the assay on MDA-MB-231 it was > 100 µM (inactive); in the assay on SNB-19, > 100 µM (inactive); in the assay on SK-MEL-28, 22.3 µM (inactive). Moreover, in the assay on NCI-H226, the GI50 was > 100 µM (inactive).
As to `CCOC(=O)c1ccc(NC(=O)Oc2ccc3c(C)cc(=O)oc3c2)cc1`, the GI50 with RPMI-8226 was 30.3 µM (inactive); in the assay with EKVX, 42.9 µM (inactive); in the assay with SF-295, 30.1 µM (inactive); with OVCAR-8, 35.5 µM (inactive); in the assay on SR, 24.2 µM (inactive); in the assay with MDA-N, 32.1 µM (inactive). In addition, the GI50 was 32 µM (inactive) in the assay with SNB-75; 42.6 µM (inactive) with Malme-3M; 30.4 µM (inactive) with HL-60; 58.6 µM (inactive) in the assay on RXF 393; 37 µM (inactive) with NCI/ADR-RES; 18.7 µM (inactive) with NCI-H522. For the same compound, the GI50 with SK-MEL-2 is 23 µM (inactive); with UACC-62, 31.8 µM (inactive); in the assay with MOLT-4, 22.5 µM (inactive); in the assay on NCI-H23 it was 32.4 µM (inactive); in the assay with MDA-MB-231, 30.3 µM (inactive); in the assay on SNB-19, 29.7 µM (inactive). In addition, the GI50 with SK-MEL-28 is 34.9 µM (inactive); in the assay with NCI-H226, 32.7 µM (inactive).
As for `N#CC(C#N)/N=N/c1ccc(-c2nc3ccccc3[nH]2)cc1`, the GI50 with RPMI-8226 is 20.7 µM (inactive); with EKVX, 50.7 µM (inactive); in the assay with SF-295, > 100 µM (inactive); with OVCAR-8, 23.1 µM (inactive); in the assay on SR it was 18.5 µM (inactive); with MDA-N, 20 µM (inactive). Also, the GI50 in the assay on SNB-75 was 42 µM (inactive); in the assay on Malme-3M, 13.6 µM (inactive); in the assay with HL-60, 0.288 µM (active); in the assay with RXF 393, 19.2 µM (inactive); with NCI/ADR-RES it was 17.6 µM (inactive); in the assay with NCI-H522, 2.81 µM (inactive). The GI50 in the assay on SK-MEL-2 is 21.7 µM (inactive); in the assay on MOLT-4 it was 10.9 µM (inactive); in the assay with NCI-H23, 20 µM (inactive); with MDA-MB-231, 13.7 µM (inactive); with SNB-19 it was > 100 µM (inactive); in the assay with SK-MEL-28, 20.2 µM (inactive). Also, the GI50 in the assay with NCI-H226 was 50.1 µM (inactive).
On to `C[C@@H]1C(=O)CC2(O)[C@@]13C[C@@H](OC(=O)[C@@H]3O)[C@@H](C)[C@@]21COC1=O` (stereo not given in full), for which the GI50 in the assay on RPMI-8226, in the assay on EKVX, in the assay with SF-295, in the assay with OVCAR-8, with SR and in the assay with MDA-N was > 100 µM (inactive) throughout. In addition, the GI50 in the assay on SNB-75, in the assay on Malme-3M, in the assay with HL-60, with RXF 393, with NCI/ADR-RES and in the assay on NCI-H522 was > 100 µM (inactive) each time. Besides, the GI50 in the assay with SK-MEL-2, in the assay with UACC-62, with MOLT-4, in the assay on NCI-H23, with MDA-MB-231 and in the assay with SNB-19 was > 100 µM (inactive) each time. In addition, the GI50 in the assay with SK-MEL-28 and with NCI-H226 was > 100 µM (inactive) in each case.
Turning to `CCc1nc(N)nc(N)c1-c1ccc([N+](=O)[O-])c(NCc2ccccc2)c1`, the GI50 was 11.6 µM (inactive) with RPMI-8226; 11.2 µM (inactive) with EKVX; 10.4 µM (inactive) with SF-295; 16.5 µM (inactive) in the assay with OVCAR-8; 10.3 µM (inactive) in the assay with SR; 16 µM (inactive) with MDA-N. For the same compound, the GI50 in the assay with SNB-75 is 10.1 µM (inactive); in the assay with HL-60, 5.82 µM (inactive); in the assay on RXF 393, 14.4 µM (inactive); with NCI/ADR-RES, 10.7 µM (inactive); with NCI-H522, 15.9 µM (inactive); in the assay on SK-MEL-2 it was 21.6 µM (inactive). Besides, the GI50 was 15.7 µM (inactive) in the assay with UACC-62; 7.5 µM (inactive) in the assay on MOLT-4; 14.5 µM (inactive) with NCI-H23; 14.8 µM (inactive) in the assay with MDA-MB-231; 16.4 µM (inactive) with SNB-19; 16.4 µM (inactive) with SK-MEL-28. Moreover, the GI50 in the assay on NCI-H226 was 18.7 µM (inactive).

For the origin of these results see ChEMBL document CHEMBL1201862, “PubChem BioAssay data set” (2004).
